Data published in PubChem BioAssay AID330 (DTP/NCI, 2004).
Values joined by “and” are separate entries in the source; they are usually repeats but may differ in a detail not shown here. Equal values may be shown once. Inconclusive results and toxic doses are left out.

System: P388 leukemia ip, CD2F1 mice, survival T/C
Experiment: NCI In Vivo Anticancer Drug Screen. Data for tumor model P388 Leukemia (intraperitoneal) in CD2F1 (CDF1) mice
Conditions: endpoint: median survival time, higher = longer survival
Procedure, shortened: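 Mice carrying the transplanted tumor received test compound or vehicle. Survival was recorded in each group, and the value is the treated-group measurement divided by that of the vehicle-treated control group.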

[1] = dose: 50.0 mg/kg/injection, schedule: Q01DX009 (ip), vehicle: saline with Tween-80
[2] = dose: 100.0 mg/kg/injection, schedule: Q01DX009 (ip), vehicle: saline with Tween-80
[3] = dose: 200.0 mg/kg/injection, schedule: Q01DX009 (ip), vehicle: saline with Tween-80
[4] = dose: 100.0 mg/kg/injection, schedule: Q01DX009 (ip), vehicle: saline
[5] = dose: 25.0 mg/kg/injection, schedule: Q01DX001 (ip), vehicle: Klucel (hydroxypropylcellulose) (HPC)
[6] = dose: 50.0 mg/kg/injection, schedule: Q01DX001 (ip), vehicle: Klucel (hydroxypropylcellulose) (HPC)
[7] = dose: 100.0 mg/kg/injection, schedule: Q01DX001 (ip), vehicle: Klucel (hydroxypropylcellulose) (HPC)

CN(C)[C@@H]1C(=O)C(C(N)=O)=C(O)[C@]2(O)C(=O)C3C(=O)c4c(O)ccc(Cl)c4[C@](C)(O)[C@H]3C[C@@H]12 (some centres undefined)
T/C (dose: 8.8 mg/kg/injection, schedule: Q01DX009 (ip), vehicle: saline with Tween-80): 109 % of control
T/C (dose: 13.3 mg/kg/injection, schedule: Q01DX009 (ip), vehicle: saline with Tween-80): 100 % of control
T/C (dose: 20.0 mg/kg/injection, schedule: Q01DX009 (ip), vehicle: saline with Tween-80): 109 % of control
T/C (dose: 30.0 mg/kg/injection, schedule: Q01DX009 (ip), vehicle: saline with Tween-80): 118 % of control

Cc1c(-c2nnc(N)o2)cc([N+](=O)[O-])cc1[N+](=O)[O-]
T/C (dose: 60.0 mg/kg/injection, schedule: Q01DX005 (ip), vehicle: saline with Tween-80): 98 % of control
T/C (dose: 120.0 mg/kg/injection, schedule: Q01DX005 (ip), vehicle: saline with Tween-80): 100 % of control
T/C (dose: 240.0 mg/kg/injection, schedule: Q01DX005 (ip), vehicle: saline with Tween-80): 99 % of control

CN1C(=O)C/C(=N/Nc2ccccc2)NC1=O
T/C [1]: 95 % of control
T/C [2]: 100 % of control
T/C [3]: 92 % of control

CCN(CC)Cc1cc(C)c(O)c(N=Nc2cc(OC)c(N=Nc3ccc([N+](=O)[O-])cc3)cc2OC)c1C
T/C (dose: 100.0 mg/kg/injection, schedule: Q04DX003 (ip), vehicle: saline with Tween-80): 91 % of control
T/C (dose: 200.0 mg/kg/injection, schedule: Q04DX003 (ip), vehicle: saline with Tween-80): 94 % of control
T/C (dose: 400.0 mg/kg/injection, schedule: Q04DX003 (ip), vehicle: saline with Tween-80): 94 % of control

CCOC(=O)C1=C(c2ccccc2)N(C)c2ccccc2S1
T/C (dose: 60.0 mg/kg/injection, schedule: Q01DX005 (ip), vehicle: saline + Tween-80 + alcohol): 100 % of control
T/C (dose: 120.0 mg/kg/injection, schedule: Q01DX005 (ip), vehicle: saline + Tween-80 + alcohol): 103 % of control
T/C (dose: 240.0 mg/kg/injection, schedule: Q01DX005 (ip), vehicle: saline + Tween-80 + alcohol): 100 % of control

CN=C(N)c1ccc(N=C(N)c2ccc(-c3ccc(C(N)=Nc4ccc(C(N)=NC)cc4)cc3)cc2)cc1
T/C (dose: 18.0 mg/kg/injection, schedule: Q01DX009 (ip), vehicle: saline): 154 % of control
T/C (dose: 625.0 micrograms/kg/injection, schedule: Q01DX009 (ip), vehicle: saline with Tween-80): 91 % of control
T/C (dose: 1250.0 micrograms/kg/injection, schedule: Q01DX009 (ip), vehicle: saline with Tween-80): 108 % of control
T/C (dose: 2500.0 micrograms/kg/injection, schedule: Q01DX009 (ip), vehicle: saline with Tween-80): 108 % of control

O=C(O)c1cc(Br)ccc1OCc1cccc(Cl)c1
T/C (dose: 25.0 mg/kg/injection, schedule: Q04DX003 (ip), vehicle: saline with Tween-80): 101 % of control
T/C (dose: 50.0 mg/kg/injection, schedule: Q04DX003 (ip), vehicle: saline with Tween-80): 98 % of control

Cc1cc(S(=O)(=O)[O-])ccc1-n1nc(C)[c-](N=Nc2cc(S(=O)(=O)[O-])ccc2C(=O)[O-])c1=O.[Cr+3].[Na+].[OH-] (centres undefined)
T/C (dose: 50.0 mg/kg/injection, schedule: Q01DX009 (ip), vehicle: saline): 104 % of control
T/C [4]: 104 % of control
T/C (dose: 200.0 mg/kg/injection, schedule: Q01DX009 (ip), vehicle: saline): 108 % of control

O=[N+]([O-])c1ccc(S/N=C\c2ccccc2)c([N+](=O)[O-])c1
T/C [1]: 97 % of control

Cc1c(O)ccc(C(=O)C(=O)C(C)C)c1O
T/C (dose: 50.0 mg/kg/injection, schedule: Q01DX009 (ip), vehicle: Klucel (hydroxypropylcellulose) (HPC)): 115 % of control
T/C (dose: 100.0 mg/kg/injection, schedule: Q01DX009 (ip), vehicle: Klucel (hydroxypropylcellulose) (HPC)): 116 % of control
T/C (dose: 200.0 mg/kg/injection, schedule: Q01DX009 (ip), vehicle: Klucel (hydroxypropylcellulose) (HPC)): 116 % of control

CCCC(OC(=O)c1ccc([N+](=O)[O-])cc1)C(=O)O (centres undefined)
T/C [5]: 95 % of control
T/C [6]: 105 % of control
T/C [7]: 100 % of control

CCCCCC[Se][Se]CCCCCC
T/C (dose: 3.12 mg/kg/injection, schedule: Q01DX005 (ip), vehicle: Klucel (hydroxypropylcellulose) (HPC)): 98 % of control
T/C (dose: 6.25 mg/kg/injection, schedule: Q01DX005 (ip), vehicle: Klucel (hydroxypropylcellulose) (HPC)): 97 % of control
T/C (dose: 12.5 mg/kg/injection, schedule: Q01DX005 (ip), vehicle: Klucel (hydroxypropylcellulose) (HPC)): 106 % of control
T/C (dose: 25.0 mg/kg/injection, schedule: Q01DX005 (ip), vehicle: Klucel (hydroxypropylcellulose) (HPC)): 104 % of control

CC(C)Cc1nccs1.CC(C)Cc1nccs1.CC(C)Cc1nccs1.CC(C)Cc1nccs1.[Cl][Rh][Cl]
T/C [5]: 108 % of control
T/C [6]: 100 % of control
T/C [7]: 112 % of control

COc1cc2c(c(OC)c1OC)-c1ccc(OC)c(=O)cc1[C@@H](N(C)Cc1ccccc1O)CC2
T/C (dose: 1.25 mg/kg/injection, schedule: Q01DX009 (ip), vehicle: Klucel (hydroxypropylcellulose) (HPC)): 97 % of control
T/C (dose: 2.5 mg/kg/injection, schedule: Q01DX009 (ip), vehicle: Klucel (hydroxypropylcellulose) (HPC)): 97 % of control
T/C (dose: 5.0 mg/kg/injection, schedule: Q01DX009 (ip), vehicle: Klucel (hydroxypropylcellulose) (HPC)): 111 % of control
T/C (dose: 20.0 mg/kg/injection, schedule: Q01DX009 (ip), vehicle: Klucel (hydroxypropylcellulose) (HPC)): 166 % of control and 188 % of control

CN1N=Cc2sc(Br)c(Br)c2B1O
T/C [1]: 94 % of control
T/C [2]: 101 % of control
T/C [3]: 94 % of control

O=C(N/N=C/c1cccc2ccccc12)c1cccnc1
T/C (dose: 6.25 mg/kg/injection, schedule: Q01DX009 (ip), vehicle: saline): 100 % of control
T/C (dose: 12.5 mg/kg/injection, schedule: Q01DX009 (ip), vehicle: saline): 89 % of control
T/C [4]: 98 % of control

O=C1C(C(=Nc2ccccc2Cl)c2ccccc2)=C(O)c2ccccc21
T/C (dose: 25.0 mg/kg/injection, schedule: Q04DX002 (ip), vehicle: saline with Tween-80): 99 % of control
T/C (dose: 50.0 mg/kg/injection, schedule: Q04DX002 (ip), vehicle: saline with Tween-80): 92 % of control
T/C (dose: 100.0 mg/kg/injection, schedule: Q04DX002 (ip), vehicle: saline with Tween-80): 93 % of control

C1COC2(CCC3(CC2)OCCO3)O1
T/C (dose: 25.0 mg/kg/injection, schedule: Q04DX003 (ip), vehicle: Klucel (hydroxypropylcellulose) (HPC)): 100 % of control
T/C (dose: 50.0 mg/kg/injection, schedule: Q04DX003 (ip), vehicle: Klucel (hydroxypropylcellulose) (HPC)): 103 % of control
T/C (dose: 100.0 mg/kg/injection, schedule: Q01DX009 (ip), vehicle: saline sonified): 111 % of control
T/C (dose: 100.0 mg/kg/injection, schedule: Q04DX003 (ip), vehicle: Klucel (hydroxypropylcellulose) (HPC)): 101 % of control
T/C (dose: 200.0 mg/kg/injection, schedule: Q01DX009 (ip), vehicle: saline sonified): 100 % of control
T/C (dose: 200.0 mg/kg/injection, schedule: Q04DX003 (ip), vehicle: Klucel (hydroxypropylcellulose) (HPC)): 100 % of control
T/C (dose: 400.0 mg/kg/injection, schedule: Q01DX009 (ip), vehicle: saline sonified): 100 % of control
T/C (dose: 400.0 mg/kg/injection, schedule: Q04DX003 (ip), vehicle: Klucel (hydroxypropylcellulose) (HPC)): 99 % of control

N#CC1C(=O)NN=C1c1cc2ccccc2oc1=O (centres undefined)
T/C (dose: 100.0 mg/kg/injection, schedule: Q01DX001 (ip), vehicle: saline): 97 % of control
T/C (dose: 200.0 mg/kg/injection, schedule: Q01DX001 (ip), vehicle: saline): 100 % of control
T/C (dose: 400.0 mg/kg/injection, schedule: Q01DX001 (ip), vehicle: saline): 97 % of control

Cn1ccnc1C[Si](C)(C)C
T/C (dose: 45.5 mg/kg/injection, schedule: Q01DX005 (ip), vehicle: saline with Tween-80): 99 % of control
T/C (dose: 91.0 mg/kg/injection, schedule: Q01DX005 (ip), vehicle: saline with Tween-80): 107 % of control
T/C (dose: 182.0 mg/kg/injection, schedule: Q01DX005 (ip), vehicle: saline with Tween-80): 108 % of control

C[N+]1(C)CCC2=CC(=O)CC(c3ccccc3)C2C1 (centres undefined)
T/C (dose: 50.0 mg/kg/injection, schedule: Q01DX005 (ip), vehicle: saline with Tween-80): 100 % of control
T/C (dose: 100.0 mg/kg/injection, schedule: Q01DX005 (ip), vehicle: saline with Tween-80): 98 % of control
T/C (dose: 200.0 mg/kg/injection, schedule: Q01DX005 (ip), vehicle: saline with Tween-80): 103 % of control
